Results published in ChEMBL document CHEMBL4699452, “Design, synthesis, and optimization of a series of 2-azaspiro[3.3]heptane derivatives as orally bioavailable fetal hemoglobin inducers” (Bioorg Med Chem Lett, 2020).
The source made the active and inactive calls. The rule behind the calls is not given here.

How the values were obtained:
[1] = Induction of fetal hemoglobin in human bone marrow derived CD34+ cells incubated for 5 days by FITC staining based flow cytometry analysis; type: functional, tissue-based; conditions: cd34-positive (myeloid/lymphoid) cell
[2] = Metabolic stability in monkey liver microsomes assessed as parent compound remaining at 0.5 mg/mL incubated for 0.5 hrs; type: ADME, Macaca mulatta, Microsome; conditions: rhesus monkey, read-out: Stabilty
[3] = Metabolic stability in human liver microsomes assessed as parent compound remaining at 0.5 mg/mL incubated for 0.5 hrs; type: ADME, Microsome; conditions: read-out: Stabilty
[4] = AUClast in monkey at 1 mg/kg, po; type: ADME, organism-based, Macaca mulatta; set-up: route oral, time 0 - last, dose 1 mg/kg; conditions: rhesus monkey, in vivo
[5] = Cmax in monkey at 1 mg/kg, po; type: ADME, organism-based, Macaca mulatta; set-up: route oral, dose 1 mg/kg; conditions: rhesus monkey, in vivo
CYP3A4 [6] = target: T1, CYP3A4 (Homo sapiens, UniProt P08684); test: Mechanism based inhibition of CYP3A4 in human liver microsomes assessed as remaining percentage at 100 uM in presence of substrate incubated for 30 mins relative to control; type: ADME; conditions: read-out: Activity
[7] = Toxicity in cynomolgus monkey assessed as transient hypoglycemia at 30 mg/kg, po qd administered for 6 consecutive days; type: organism-based, Macaca fascicularis; conditions: in vivo, 144 h, time 6 day
[8] = Induction of fetal hemoglobin in human bone marrow derived CD34+ cells assessed as maximum efficacy incubated for 5 days by FITC staining based flow cytometry analysis relative to decitabine; type: functional; conditions: CD34-positive (myeloid/lymphoid) cell, 120 h, time 5 day
[9] = Solubility of the compound in pH 6.8 JP2 fluid; type: physicochemical
CYP2D6 = CYP2D6 (Homo sapiens, UniProt P10635); test: Inhibition of CYP2D6 (unknown origin) at 10 uM relative to control; type: ADME
[10] = Protein binding in monkey plasma; type: ADME, cell-free, Macaca mulatta; conditions: rhesus monkey, read-out: PPB (converted)
[11] = Genotoxicity in Salmonella typhimurium by Ames test; type: toxicity; conditions: salmonella enterica subsp. enterica serovar typhimurium
Macaca fascicularis [12] = test: In vivo induction of fetal hemoglobin in cynomolgus monkey assessed as gamma-globin gene expression at 30 mg/kg, po qd administered for 6 consecutive days by RT-qPCR analysis; type: functional, organism-based; conditions: time 6.0 day
CYP3A4 [13] = target: T1, CYP3A4; test: Inhibition of CYP3A4 (unknown origin) at 10 uM relative to control; type: ADME
[14] = Cytotoxicity against human bone marrow derived CD34+ cells assessed as effect on cell viability at 15 uM by propidium iodide staining based assay relative to control; set-up: species or system CD34-positive (myeloid/lymphoid) cell; conditions: read-out: Activity
hERG (KCNH2) = hERG (KCNH2) (Homo sapiens, UniProt Q12809); test: Inhibition of human ERG at 10 uM relative to control
CYP2C9 = CYP2C9 (Homo sapiens, UniProt P11712); test: Inhibition of CYP2C9 (unknown origin) at 10 uM relative to control; type: ADME
CYP1A2 = target: T2, CYP1A2 (Homo sapiens, UniProt P05177); test: Inhibition of CYP1A2 (unknown origin) at 10 uM relative to control; type: ADME
T2 sequence (P05177 whole entry): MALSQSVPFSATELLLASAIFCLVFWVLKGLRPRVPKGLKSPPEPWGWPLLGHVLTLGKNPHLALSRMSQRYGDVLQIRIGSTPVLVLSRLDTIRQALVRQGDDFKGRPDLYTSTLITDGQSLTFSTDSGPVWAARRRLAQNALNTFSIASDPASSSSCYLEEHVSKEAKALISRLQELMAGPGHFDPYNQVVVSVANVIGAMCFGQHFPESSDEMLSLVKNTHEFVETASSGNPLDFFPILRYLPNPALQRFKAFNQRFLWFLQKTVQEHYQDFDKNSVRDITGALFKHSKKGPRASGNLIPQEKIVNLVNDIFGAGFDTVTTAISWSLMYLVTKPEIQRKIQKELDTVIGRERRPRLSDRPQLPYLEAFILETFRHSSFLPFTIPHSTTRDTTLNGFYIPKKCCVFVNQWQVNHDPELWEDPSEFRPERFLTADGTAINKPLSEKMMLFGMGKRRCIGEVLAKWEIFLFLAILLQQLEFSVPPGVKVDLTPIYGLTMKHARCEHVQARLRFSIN

[15] = Solubility of the compound in pH 1.2 JP1 fluid; type: physicochemical
[16] = Half life in monkey at 1 mg/kg, po; type: ADME, organism-based, Macaca mulatta; conditions: rhesus monkey, in vivo
Macaca fascicularis [17] = test: In vivo induction of fetal hemoglobin in po dosed cynomolgus monkey assessed as gamma-globin gene expression administered twice for 6 consecutive days by RT-qPCR analysis; type: functional, organism-based; conditions: dose mg/kg 15-30, time 6.0 day
[18] = Cytotoxicity against human bone marrow derived CD34+ cells assessed as effect on cell viability at 0.47 to 15 uM by propidium iodide staining based assay; conditions: cd34-positive (myeloid/lymphoid) cell, dose 0.47-15 µM
[19] = AUClast in monkey at 10 mg/kg, po; type: ADME, organism-based, Macaca mulatta; set-up: route oral, time 0 - last, dose 10 mg/kg; conditions: rhesus monkey, in vivo
[20] = Cmax in monkey at 10 mg/kg, po; type: ADME, organism-based, Macaca mulatta; set-up: route oral, dose 10 mg/kg; conditions: rhesus monkey, in vivo
[21] = Half life in monkey at 10 mg/kg, po; type: ADME, organism-based, Macaca mulatta; conditions: rhesus monkey, in vivo

CYP2C9, sequence (P11712 whole entry): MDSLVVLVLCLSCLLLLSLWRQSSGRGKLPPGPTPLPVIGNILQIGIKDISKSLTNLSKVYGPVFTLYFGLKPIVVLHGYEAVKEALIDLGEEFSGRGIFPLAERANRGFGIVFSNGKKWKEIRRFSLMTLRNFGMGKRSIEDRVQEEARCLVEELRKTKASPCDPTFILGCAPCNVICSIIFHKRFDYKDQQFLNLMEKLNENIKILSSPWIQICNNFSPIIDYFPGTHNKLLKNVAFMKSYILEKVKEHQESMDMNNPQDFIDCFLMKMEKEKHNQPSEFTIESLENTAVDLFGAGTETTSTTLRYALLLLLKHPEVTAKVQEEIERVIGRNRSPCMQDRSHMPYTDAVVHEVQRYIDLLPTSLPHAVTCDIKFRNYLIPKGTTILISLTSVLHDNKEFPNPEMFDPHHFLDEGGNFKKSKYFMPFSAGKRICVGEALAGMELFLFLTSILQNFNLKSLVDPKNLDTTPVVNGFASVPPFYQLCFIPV
CYP2D6, sequence (P10635 whole entry): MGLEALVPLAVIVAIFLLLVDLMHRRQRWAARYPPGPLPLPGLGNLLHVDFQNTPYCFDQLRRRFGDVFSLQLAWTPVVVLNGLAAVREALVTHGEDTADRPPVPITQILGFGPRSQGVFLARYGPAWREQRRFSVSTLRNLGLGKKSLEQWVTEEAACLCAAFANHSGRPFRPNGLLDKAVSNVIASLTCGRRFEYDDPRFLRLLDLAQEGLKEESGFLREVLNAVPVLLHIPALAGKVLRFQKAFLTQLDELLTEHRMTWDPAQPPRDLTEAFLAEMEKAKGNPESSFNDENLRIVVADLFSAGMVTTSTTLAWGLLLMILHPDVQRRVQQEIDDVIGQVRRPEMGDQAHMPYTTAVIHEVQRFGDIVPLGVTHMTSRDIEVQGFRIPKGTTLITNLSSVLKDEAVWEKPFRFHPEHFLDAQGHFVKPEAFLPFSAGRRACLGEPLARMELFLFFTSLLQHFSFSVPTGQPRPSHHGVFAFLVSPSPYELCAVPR
T1 sequence (P08684 whole entry): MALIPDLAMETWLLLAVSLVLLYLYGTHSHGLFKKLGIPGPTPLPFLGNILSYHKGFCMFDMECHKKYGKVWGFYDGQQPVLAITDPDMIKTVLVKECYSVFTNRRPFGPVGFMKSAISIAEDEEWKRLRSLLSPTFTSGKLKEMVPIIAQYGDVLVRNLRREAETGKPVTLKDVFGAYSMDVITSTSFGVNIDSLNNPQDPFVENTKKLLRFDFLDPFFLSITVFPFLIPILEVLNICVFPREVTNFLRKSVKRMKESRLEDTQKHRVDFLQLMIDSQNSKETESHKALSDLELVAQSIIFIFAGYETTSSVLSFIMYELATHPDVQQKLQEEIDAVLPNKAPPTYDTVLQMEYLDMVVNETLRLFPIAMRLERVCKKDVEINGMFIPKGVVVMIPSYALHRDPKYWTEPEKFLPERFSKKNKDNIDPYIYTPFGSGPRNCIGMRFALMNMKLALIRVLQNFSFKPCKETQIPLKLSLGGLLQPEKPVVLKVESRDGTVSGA
hERG (KCNH2), sequence (Q12809 whole entry): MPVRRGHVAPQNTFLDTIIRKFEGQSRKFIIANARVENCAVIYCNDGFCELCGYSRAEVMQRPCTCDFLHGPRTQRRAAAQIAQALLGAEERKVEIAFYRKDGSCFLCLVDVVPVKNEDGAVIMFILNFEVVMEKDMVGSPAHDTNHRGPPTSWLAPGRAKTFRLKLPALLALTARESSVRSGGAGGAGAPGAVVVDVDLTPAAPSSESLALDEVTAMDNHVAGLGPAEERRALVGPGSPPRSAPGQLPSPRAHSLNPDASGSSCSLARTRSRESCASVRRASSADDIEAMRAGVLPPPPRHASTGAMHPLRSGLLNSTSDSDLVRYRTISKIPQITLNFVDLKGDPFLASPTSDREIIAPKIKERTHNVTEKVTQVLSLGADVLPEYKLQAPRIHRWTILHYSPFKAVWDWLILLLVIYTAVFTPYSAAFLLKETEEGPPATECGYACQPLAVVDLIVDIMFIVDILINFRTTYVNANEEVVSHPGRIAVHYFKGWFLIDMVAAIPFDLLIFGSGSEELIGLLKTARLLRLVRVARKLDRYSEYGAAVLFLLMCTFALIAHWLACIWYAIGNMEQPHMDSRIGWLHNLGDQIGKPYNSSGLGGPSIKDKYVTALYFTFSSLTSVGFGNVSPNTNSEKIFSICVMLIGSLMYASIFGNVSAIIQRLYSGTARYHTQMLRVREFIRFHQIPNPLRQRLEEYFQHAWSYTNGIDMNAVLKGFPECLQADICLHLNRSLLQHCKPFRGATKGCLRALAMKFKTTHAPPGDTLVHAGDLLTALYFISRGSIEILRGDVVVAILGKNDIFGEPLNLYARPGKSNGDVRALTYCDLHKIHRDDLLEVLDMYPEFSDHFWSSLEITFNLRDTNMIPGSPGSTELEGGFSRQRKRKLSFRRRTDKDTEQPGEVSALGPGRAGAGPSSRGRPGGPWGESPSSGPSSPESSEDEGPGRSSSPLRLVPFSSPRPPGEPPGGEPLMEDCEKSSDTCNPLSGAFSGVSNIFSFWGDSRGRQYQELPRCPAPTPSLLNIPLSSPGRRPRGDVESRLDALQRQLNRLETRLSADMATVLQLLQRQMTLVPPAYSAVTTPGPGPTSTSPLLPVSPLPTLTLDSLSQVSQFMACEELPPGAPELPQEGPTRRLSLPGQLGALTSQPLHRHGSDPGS

With CN(C)C(=O)CCNC(=O)c1csc(-c2ccc(F)cc2)n1 the EC50 [1] was over 5 µM, the remaining at 0.5 h [2] was 0.1% and the remaining at 0.5 h [3] was 53%.
Compound CC(=O)N1CC2(CC(NC(=O)c3cc(-c4ccccc4)no3)C2)C1 has an AUC(0-t) [4] of 4210 ng·h/mL, a Cmax [5] of 545 ng/mL and an activity at 0.5 h, 100 µM (CYP3A4 [6]) of 94%. For the same compound, the Activity [7] was “Toxic”, the Emax [8] was 54% and the solubility [9] was over 100 µg/mL. It also gave an inhibition at 10 µM (CYP2D6) of 2%, a fraction unbound [10] of 0.41 and an EC50 [1] of 2.8 µM. The Activity [11] was “Non-Toxic”, the Activity (Macaca fascicularis [12]) was “Active” and the inhibition at 10 µM (CYP3A4 [13]) was under 0%. For the same compound, the viability at 15 µM [14] was 20%, the inhibition at 10 µM (hERG (KCNH2)) was 18% and the inhibition at 10 µM (CYP2C9) was under 0%. The remaining at 0.5 h [2] was 64%, the inhibition at 10 µM (CYP1A2) was 3% and the solubility [15] was over 100 µg/mL. The remaining at 0.5 h [3] was over 100%, the half-life [16] was 222 min and the Activity (Macaca fascicularis [17]) was “Dose-dependent effect”.
With CN(C)C(=O)CCNC(=O)C1CSC(c2ccc(F)cc2)N1 (mixture of isomers) the EC50 [1] was over 5 µM, the remaining at 0.5 h [2] was 32% and the remaining at 0.5 h [3] was 90%.
Compound CN(C)C(=O)CCNC(=O)c1cc(-c2cccc(F)c2)no1 has an EC50 [1] of over 5 µM, a remaining at 0.5 h [2] of 55% and a remaining at 0.5 h [3] of over 100%.
For CN(C)C(=O)CCN1CCn2cc(-c3ccc(F)cc3)cc2C1=O, the EC50 [1] was over 5 µM, the remaining at 0.5 h [2] was 41% and the remaining at 0.5 h [3] was 94%.
Work on CN(C)C(=O)CCN(C)C(=O)c1cc(-c2ccc(F)cc2)no1 yielded an EC50 [1] of over 5 µM, a remaining at 0.5 h [2] of 36% and a remaining at 0.5 h [3] of 98%.
CC(=O)N1CC(CNC(=O)c2cc(-c3ccccc3)no2)C1 showed an EC50 [1] of over 5 µM, a remaining at 0.5 h [2] of 17% and a remaining at 0.5 h [3] of 50%.
Compound CC(CC(=O)N(C)C)NC(=O)c1cc(-c2ccc(F)cc2)no1 (racemic) has an EC50 [1] of over 5 µM, a remaining at 0.5 h [2] of 35% and a remaining at 0.5 h [3] of 91%.
Compound CN(C)C(=O)CCNC(=O)c1cc(-c2ccccc2F)no1 has an Emax [8] of 37%, an EC50 [1] of over 5 µM and a remaining at 0.5 h [2] of 4%. For the same compound, the remaining at 0.5 h [3] was over 100%.
In the case of CC(=O)N1CC2(CC(NC(=O)c3cc(-c4ccc(F)cc4)no3)C2)C1, the AUC(0-t) [4] is reported as 2350 ng·h/mL, the Cmax [5] is reported as 460 ng/mL and the activity at 0.5 h, 100 µM (CYP3A4 [6]) is reported as 98%. For the same compound, the Emax [8] was 64%, the solubility [9] was over 100 µg/mL and the inhibition at 10 µM (CYP2D6) was 1%. For the same compound, the fraction unbound [10] was 0.28, the EC50 [1] was 2.9 µM and the Activity [11] was “Non-Toxic”. The inhibition at 10 µM (CYP3A4 [13]) was under 0%, the inhibition at 10 µM (CYP2C9) was under 0% and the remaining at 0.5 h [2] was 79%. The inhibition at 10 µM (CYP1A2) was 1%, the Activity [18] was “Non-Toxic” and the solubility [15] was over 100 µg/mL. The remaining at 0.5 h [3] was 84% and the half-life [16] was 354 min.
With CN(C)C(=O)CCNC(=O)c1cc(-c2ccc(F)cc2)no1 the AUC(0-t) [19] was 4360 ng·h/mL, the activity at 0.5 h, 100 µM (CYP3A4 [6]) was 97% and the Emax [8] was 56%. The solubility [9] was over 100 µg/mL, the inhibition at 10 µM (CYP2D6) was 5% and the fraction unbound [10] was 0.42. For the same compound, the EC50 [1] was 2.8 µM, the Activity [11] was “Non-Toxic” and the Cmax [20] was 1360 ng/mL. For the same compound, the inhibition at 10 µM (CYP3A4 [13]) was under 0%, the inhibition at 10 µM (hERG (KCNH2)) was 7.1% and the inhibition at 10 µM (CYP2C9) was 6%. For the same compound, the remaining at 0.5 h [2] was 10%, the inhibition at 10 µM (CYP1A2) was 6% and the half-life [21] was 60 min. The solubility [15] was over 100 µg/mL and the remaining at 0.5 h [3] was 87%.
CC(C)C(=O)N1CC2(CC(NC(=O)c3cc(-c4ccccc4)no3)C2)C1 showed an Emax [8] of 27%, an EC50 [1] of over 5 µM and a remaining at 0.5 h [2] of 55%. For the same compound, the remaining at 0.5 h [3] was 79%.
